Experimental data published in patent publication US20250204541A1, “GAS PHASE TREATMENT OF PRODUCE” (priority 2022, published 2025).

Experiments:
Type in all cases: in vivo
[1] = system: Colletotrichum gloeosporioides (Cg); assay: Antifungal activity of vapor against Colletotrichum gloeosporioides in avocados; conditions: Example 9, vapor of 3 mL in a Petri dish for 72 hours, 7 days of incubation
Experimental: Example 7. The antifungal activity of AITC and DADS vapor against Colletotrichum gloeosporioides (Cg) was tested in avocados. All test pieces were wounded by removing the stem and infected by dispensing 1000 Cg spores suspended in 10 μL of water into the wound. The test groups consisted of avocados that were: untreated and uninfected; untreated and infected; treated by dipping in a solution of 0.1 g/L of prochloraz; exposed to the vapor of 3 mL of AITC disposed in a Petri dish; and exposed to the vapor of 3 mL of DADS disposed in a Petri dish. FIG. 9 quantifies the infection results. AITC vapor reduced the incidence of Cg mold by 97% compared to the untreated test group and 70% compared to the prochloraz treated test group. DADS vapor reduced the incidence of Cg mold by 60% compared to the untreated test group.
Example 8. The antifungal activity of a range of DADS vapor exposure times was tested against Cg in avocados. All test pieces were wounded by removing the stem and infected by dispensing 1000 Cg spores suspended in 10 μL of water into the wound. The test groups consisted of avocados that were: infected and untreated; and exposed to the vapor of 3 mL of DADS in a Petri dish for 24 hours, 48 hours, and 72 hours. FIG. 10 quantifies the infection results. Test group exposed to DADS vapor at all exposure times reduced the incidence of Cg mold compared to the untreated test group. A 24 hour DADS exposure reduced the incidence of Cg mold by 8%. A 48 hour DADS exposure reduced the incidence of Cg mold by 25%. A 72 hour DADS exposure reduced the incidence of Cg mold by 57%.
Example 9. The antifungal activity of a range of AITC and carvacrol vapor exposure times was tested against Cg in avocados. To measure the effect of the various treatments on ripening, durometer shore was taken after 7 days of incubation at ambient temperature and high humidity. All samples were wounded by removing the stem and infected by dispensing 1000 Cg spores suspended in 10 μL of water in the wound. The test groups consisted of avocados that were: infected and left untreated on the benchtop; infected and left untreated under a fume hood; exposed to the vapor of 3 mL of AITC in a Petri dish for 24 hours, 48 hours, and 72 hours; and exposed to the vapor of 3 mL of carvacrol in a Petri dish for 72 hours. FIG. 11 quantifies the infection results. […] All exposure times to AITC vapor reduced the incidence of Cg mold compared to the untreated samples. A 24 hour AITC exposure reduced the incidence of Cg mold by 90%. A 48 hour AITC exposure reduced the incidence of Cg mold by 97%. A 72 hour AITC exposure reduced the incidence of Cg mold by 83%. […]
Example 21. The antifungal activity of avocados exposed to AITC vapor and prochloraz was tested against Cg in avocados. To measure the effect of the various treatments on ripening, durometer shore was taken after 5 days of incubation at ambient temperature (about 20° C. to about 25° C.) and high humidity (about 88% relative humidity to about 93% relative humidity). All samples were wounded by removing the stem and infected by dispensing 1000 Cg spores suspended in 10 μL of water in the wound. Exposure to vapor was done by placing the avocados in an airtight container, dispensing AITC onto Whatman filter paper discs, suspending the discs in front of a battery-powered fan, closing the container and incubating the avocados for 30 minutes. After vapor exposure, the avocados were left at ambient temperature, high humidity, and assessed for Cg mold on day 5. Treatment groups consisted of avocados that were: exposed for 30 minutes to the vapor of 125 μL of AITC disposed on a filter paper disc; dipped in a solution of 0.1 g/L of prochloraz and placed to dry on a rack in front of a fan for 30 min; infected and left untreated; and uninfected and untreated. […] To prepare the 0.1 g/L of prochloraz, 10 mg of prochloraz was mixed with 10 mL of ethanol and 90 mL of water. […] A 24 hour AITC exposure reduced the incidence of Cg mold by 90%. […]

[2] = system: Penicillium digitatum (Pd); assay: Antifungal activity of vapor against Penicillium digitatum in wounded, infected mandarins; conditions: vapor of 62.5 μL AITC and/or 125 μL of all other compounds for 30 minutes, assessed after 6 days
[3] = system: avocados; assay: Durometer shore (ripening/firmness) of treated avocados; conditions: Example 21; Cg-infected avocados; after 5 days; AITC 125 μL vapor 30 minutes, prochloraz 0.1 g/L dip
Experimental: Example 9. The antifungal activity of a range of AITC and carvacrol vapor exposure times was tested against Cg in avocados. To measure the effect of the various treatments on ripening, durometer shore was taken after 7 days of incubation at ambient temperature and high humidity. All samples were wounded by removing the stem and infected by dispensing 1000 Cg spores suspended in 10 μL of water in the wound. The test groups consisted of avocados that were: infected and left untreated on the benchtop; infected and left untreated under a fume hood; exposed to the vapor of 3 mL of AITC in a Petri dish for 24 hours, 48 hours, and 72 hours; and exposed to the vapor of 3 mL of carvacrol in a Petri dish for 72 hours. FIG. 11 quantifies the infection results. […] All exposure times to AITC vapor reduced the incidence of Cg mold compared to the untreated samples. A 24 hour AITC exposure reduced the incidence of Cg mold by 90%. A 48 hour AITC exposure reduced the incidence of Cg mold by 97%. A 72 hour AITC exposure reduced the incidence of Cg mold by 83%.
Example 10. The antifungal activity of a range of AITC vapor exposure times were tested against Cg in avocados. To measure the effect of the various treatments on ripening, durometer shore was taken after 6 days of incubation at ambient temperature and high humidity. All samples were wounded by removing the stem and infected by dispensing 1000 Cg spores suspended in 10 μL of water in each wound. The test groups consisted of avocados that were: infected and left untreated on the benchtop; infected and left untreated in a fume hood; exposed to the vapor of 3 mL of AITC in a Petri dish for 24 hours, 48 hours, and 72 hours. FIG. 13 quantifies the infection results. […] All exposure times to AITC vapor reduced the incidence of Cg mold compared to the untreated samples.
Example 21. The antifungal activity of avocados exposed to AITC vapor and prochloraz was tested against Cg in avocados. To measure the effect of the various treatments on ripening, durometer shore was taken after 5 days of incubation at ambient temperature (about 20° C. to about 25° C.) and high humidity (about 88% relative humidity to about 93% relative humidity). All samples were wounded by removing the stem and infected by dispensing 1000 Cg spores suspended in 10 μL of water in the wound. Exposure to vapor was done by placing the avocados in an airtight container, dispensing AITC onto Whatman filter paper discs, suspending the discs in front of a battery-powered fan, closing the container and incubating the avocados for 30 minutes. After vapor exposure, the avocados were left at ambient temperature, high humidity, and assessed for Cg mold on day 5. Treatment groups consisted of avocados that were: exposed for 30 minutes to the vapor of 125 μL of AITC disposed on a filter paper disc; dipped in a solution of 0.1 g/L of prochloraz and placed to dry on a rack in front of a fan for 30 min; infected and left untreated; and uninfected and untreated. […] To prepare the 0.1 g/L of prochloraz, 10 mg of prochloraz was mixed with 10 mL of ethanol and 90 mL of water. […] A 24 hour AITC exposure reduced the incidence of Cg mold by 90%. […] The mean shore value for the untreated avocados was 28.8 (standard deviation (SD)=10.8). The mean shore value for the infected avocados was 47.3 (SD=11.8). The mean shore value of the positive control, prochloraz treated avocados was 44.3 (SD=14.7). The mean shore value of the AITC treated avocados was 61.1 (SD=10.5).
Durometer Shore Measurement: A Fruit Hardness Tester—HPE III Fff w/Sphere Ø 5.0 mm Test Anvil is used for the measurements. The Operating Procedure is as follows: • 1) At room temperature and 1 atm pressure, switch on the measuring device and press the hull or sleeve against the specimen so that the contact surface of the pressure plate rests on the fruit. […]

`Cc1ccc(C(C)C)cc1O` [carvacrol] was tested, and the “reduction of the incidence of Cg mold” value [1] was “did not reduce the incidence of Cg mold”.
`C=CCc1ccc(O)c(OC)c1` [eugenol] was tested, and the “performance against Pd compared with untreated samples” value [2] was “performed better than the untreated samples”.
For `CCCN(CCOc1c(Cl)cc(Cl)cc1Cl)C(=O)n1ccnc1` [prochloraz, reference compound], the mean shore value [3] was 44.3 (SD=14.7) shore.
